Data taken from the supplement of paper PMC13380429.

Experiments:
Conditions in all cases: 72 h
Caco-2 [1] = assay: cell viability relative to DMSO; higher = less toxic
Calu-3 [2] = assay: as above
HepG2 [3] = assay: as above
U2OS [4] = assay: as above
Vero E6 [5] = assay: as above
Caco-2 [6] = assay: relative viability EC50 (midpoint between 100% and the lowest measured viability); higher = less toxic
Calu-3 [7] = assay: as above
HepG2 [8] = assay: as above
U2OS [9] = assay: as above
Vero E6 [10] = assay: as above
Caco-2 [11] = assay: drug sensitivity score (DSS) for viability; higher = more toxic; extreme values may be limits of the assay
Calu-3 [12] = assay: as above
HepG2 [13] = assay: as above
U2OS [14] = assay: as above
Vero E6 [15] = assay: as above

Row | SMILES | cell viability (Caco-2 [1]; 1 nM) | cell viability (Caco-2 [1]; 10 nM) | cell viability (Caco-2 [1]; 100 nM) | cell viability (Caco-2 [1]; 1000 nM) | cell viability (Caco-2 [1]; 10000 nM) | cell viability (Calu-3 [2]; 1 nM) | cell viability (Calu-3 [2]; 10 nM) | cell viability (Calu-3 [2]; 100 nM) | cell viability (Calu-3 [2]; 1000 nM) | cell viability (Calu-3 [2]; 10000 nM) | cell viability (HepG2 [3]; 1 nM) | cell viability (HepG2 [3]; 10 nM) | cell viability (HepG2 [3]; 100 nM) | cell viability (HepG2 [3]; 1000 nM) | cell viability (HepG2 [3]; 10000 nM) | cell viability (U2OS [4]; 1 nM) | cell viability (U2OS [4]; 10 nM) | cell viability (U2OS [4]; 100 nM) | cell viability (U2OS [4]; 1000 nM) | cell viability (U2OS [4]; 10000 nM) | cell viability (Vero E6 [5]; 1 nM) | cell viability (Vero E6 [5]; 10 nM) | cell viability (Vero E6 [5]; 100 nM) | cell viability (Vero E6 [5]; 1000 nM) | cell viability (Vero E6 [5]; 10000 nM) | relative viability EC50 (Caco-2 [6]) | relative viability EC50 (Calu-3 [7]) | relative viability EC50 (HepG2 [8]) | relative viability EC50 (U2OS [9]) | relative viability EC50 (Vero E6 [10]) | drug sensitivity score (Caco-2 [11]) | drug sensitivity score (Calu-3 [12]) | drug sensitivity score (HepG2 [13]) | drug sensitivity score (U2OS [14]) | drug sensitivity score (Vero E6 [15])
1 | CCN[C@@H](C)Cc1cccc(C(F)(F)F)c1 [dexfenfluramine] | 105% | 114% | 89.8% | 108% | 106% | 97.4% | 109% | 105% | 118% | 113% | 106% | 93.7% | 105% | 82.9% | 97.5% | 93.5% | 96.7% | 96.1% | 94.3% | 101% | 99.4% | 92.7% | 100% | 90.7% | 94.7% | > 10 µM | > 10 µM | > 10 µM | > 10 µM | > 10 µM | 0 | 0 | 0 | 0 | 0
2 | COc1cc2c(cc1OC)CN(CCc1ccc(NC(=O)c3cccc4c(=O)c5cccc(OC)c5[nH]c34)cc1)CC2 [elacridar] | 97.3% | 91.6% | 92.2% | 95.5% | 88.3% | 98.9% | 94.3% | 99.6% | 101% | 89% | 99.6% | 107% | 101% | 96.6% | 97.9% | 96.5% | 99.3% | 99.2% | 100% | 99.8% | 97% | 94.8% | 98.7% | 93.5% | 103% | > 10 µM | > 10 µM | > 10 µM | > 10 µM | > 10 µM | 0 | 0 | 0 | 0 | 0
3 | Cc1c(-c2ccnn2C)cc(C(=O)NCc2ccc(S(C)(=O)=O)cn2)c(=O)n1-c1cccc(C(F)(F)F)c1 [AZD9668] | 93.9% | 101% | 106% | 96.9% | 101% | 94.5% | 103% | 99.9% | 92.9% | 97.1% | 101% | 102% | 98% | 108% | 103% | 97% | 93.6% | 102% | 95.7% | 102% | 97.3% | 102% | 89.7% | 92.2% | 107% | > 10 µM | > 10 µM | > 10 µM | > 10 µM | > 10 µM | 0 | 0 | 0 | 0 | 0
4 | C[N+](C)(C)CCCCCCCCCC[N+](C)(C)C [decamethonium] | 98.1% | 93.1% | 99.1% | 99.9% | 97.4% | 88.3% | 114% | 95.6% | 108% | 89.3% | 102% | 99.2% | 96.2% | 93.2% | 104% | 98.3% | 99.8% | 94% | 97.3% | 95.5% | 101% | 98% | 102% | 95.7% | 99.7% | > 10 µM | > 10 µM | > 10 µM | > 10 µM | > 10 µM | 0 | 0 | 0 | 0 | 0
5 | O=C(Nc1ccccc1)N1CCN(c2nc(-c3ccccc3)ns2)CC1 | 100% | 97.8% | 101% | 95.4% | 86.7% | 116% | 102% | 106% | 96.8% | 102% | 100% | 118% | 101% | 106% | 76.9% | 104% | 99.5% | 97.8% | 99.6% | 98.9% | 93.3% | 96.3% | 94.1% | 93% | 83% | > 10 µM | > 10 µM | > 10 µM | > 10 µM | > 10 µM | 0.4 | 0 | 0.6 | 0 | 0.3
6 | O=C(O)CCc1c(C(=O)O)[nH]c2cc(Cl)cc(Cl)c12 | 92.8% | 104% | 90.9% | 102% | 99.4% | 91.6% | 96.3% | 93.2% | 97.5% | 106% | 102% | 92.5% | 94.2% | 107% | 105% | 96.2% | 103% | 95.9% | 99.7% | 97.5% | 99.9% | 102% | 102% | 94.3% | 102% | > 10 µM | > 10 µM | > 10 µM | > 10 µM | > 10 µM | 0 | 0 | 0 | 0 | 0
7 | N=C(N)Nc1ccc(C(=O)Oc2ccc3cc(C(=N)N)ccc3c2)cc1 [nafamostat] | 101% | 100% | 98.8% | 92.4% | 107% | 98.3% | 103% | 107% | 103% | 99.4% | 96.5% | 108% | 104% | 108% | 77.1% | 102% | 99.4% | 102% | 97.6% | 102% | 99.7% | 103% | 104% | 102% | 97% | > 10 µM | > 10 µM | > 10 µM | > 10 µM | > 10 µM | 0 | 0 | 0.5 | 0 | 0
8 | CCN(CC)CCCC(C)Nc1nc(C)cc(Nc2ccc3nc(C)cc(N)c3c2)n1 (stereo not given) | 102% | 97.2% | 99.5% | 95% | 105% | 104% | 92% | 95.4% | 92.5% | 110% | 96% | 99.9% | 100% | 95.6% | 79.9% | 106% | 97.6% | 100% | 97.8% | 102% | 97.7% | 102% | 104% | 97.9% | 97.6% | > 10 µM | > 10 µM | > 10 µM | > 10 µM | > 10 µM | 0 | 0 | 1.2 | 0 | 0
9 | c1ccc2sc(SN3CCOCC3)nc2c1 [N-oxydiethylenebenzothiazole-2-sulfenamide] | 86.7% | 92.6% | 92.5% | 92.5% | 93.8% | 104% | 101% | 97.4% | 83.3% | 110% | 101% | 97.1% | 98.9% | 115% | 111% | 96.9% | 105% | 94.1% | 99.1% | 102% | 97% | 94.5% | 99.6% | 104% | 112% | > 10 µM | > 10 µM | > 10 µM | > 10 µM | > 10 µM | 0 | 0 | 0 | 0 | 0
10 | CCC(=O)O[C@@](Cc1ccccc1)(c1ccccc1)[C@@H](C)CN(C)C [levopropoxyphene] | 99.3% | 103% | 98.3% | 100% | 102% | 104% | 90.1% | 94.7% | 102% | 104% | 94.3% | 97.1% | 96.4% | 94.7% | 89.4% | 104% | 101% | 101% | 98.8% | 100% | 100% | 100% | 96% | 101% | 95.4% | > 10 µM | > 10 µM | > 10 µM | > 10 µM | > 10 µM | 0 | 0 | 0 | 0 | 0
11 | O=C(O)Cn1c(C(=O)Nc2nc(-c3ccccc3Cl)cs2)cc2ccccc21 | 103% | 99.9% | 95.1% | 89.5% | 110% | 100% | 92.5% | 99.4% | 103% | 102% | 106% | 99.2% | 101% | 104% | 93.3% | 96% | 101% | 95.6% | 101% | 98.5% | 105% | 106% | 103% | 108% | 97.4% | > 10 µM | > 10 µM | > 10 µM | > 10 µM | > 10 µM | 0 | 0 | 0 | 0 | 0
12 | CC(C(=O)O)c1ccc(CC2CCCC2=O)cc1 (stereo not given) [loxoprofen] | 98.6% | 90% | 97.1% | 88.1% | 96% | 101% | 110% | 104% | 108% | 93.6% | 92.1% | 104% | 97% | 108% | 94.3% | 108% | 92.7% | 98.3% | 94.8% | 96.9% | 106% | 97.4% | 98.4% | 92.8% | 94.2% | > 10 µM | > 10 µM | > 10 µM | > 10 µM | > 10 µM | 0 | 0 | 0 | 0 | 0
13 | C#CCN1C(C)=C(C(=O)OC)C(c2cccc([N+](=O)[O-])c2)C(C(=O)OCC)=C1C (stereo not given) [MRS-1845] | 92% | 98.1% | 96.9% | 88.6% | 85.4% | 99.5% | 91.3% | 95.6% | 98.3% | 90.6% | 95.2% | 105% | 91.3% | 106% | 95.7% | 107% | 97.8% | 105% | 100% | 97.2% | 94.1% | 99.6% | 98% | 99.3% | 99% | > 10 µM | > 10 µM | > 10 µM | > 10 µM | > 10 µM | 0.3 | 0 | 0 | 0 | 0
14 | c1cc(CN2CCCNCCNCCCNCC2)ccc1CN1CCCNCCNCCCNCC1 [plerixafor] | 101% | 96.1% | 97.5% | 101% | 95.2% | 90.7% | 104% | 97.3% | 94.4% | 105% | 92.9% | 104% | 88.4% | 106% | 96.5% | 101% | 99.8% | 97.9% | 97.2% | 98.1% | 104% | 99.1% | 104% | 101% | 100% | > 10 µM | > 10 µM | > 10 µM | > 10 µM | > 10 µM | 0 | 0 | 0 | 0 | 0
